Where two headings read alike, the source gives them in different places.
Key:
[1] = test system: sheep red blood cells (RBC); experiment: Photohemolysis test (Test Example 13); format: cell-based; settings: 0.0008 to 0.1 w/v %, 10 J/cm2 UV-irradiation (290-400 nm)
From the text: Aliquots of sheep red blood cells (RBC) suspension prepared with medium to make a 2.5 v/v % concentration are dispensed into microplates. The compound of the present invention was desolved with a vehicle to make target concentrations and then these solutions were immediately added (in concentrations of 0.0008 to 0.1 w/v %) into the microplates. The mixtures on the microplates were exposed to 10 J/cm2 of UV-irradiation (UV-A and UV-B, 290-400 nm) with a GL20SE lamp (SANKYO DENKI) and a FL20S-BLB lamp (Panasonic). After the UV-irradiation, the mixtures were centrifuged. Aliquots of supernatant were transferred to a microplate. Absorbance of the supernatants was measured at 540 nm and 630 nm for judgement of the potential of phototoxicity. In the study, two endpoints were evaluated in biomembrane impairment (% of photohemolysis index; PI) and hyperoxidation of lipid membrane (methemoglobin formation; met-Hb) with the absorbance at 540 nm and 630 nm, respectively. PI and met-Hb were assessed based on the negative criteria (−), PI<10% and changes in absorbance at 630 nm<0.05, respectively. All else was judged as positive (+).

[2] = test system: T125A mutant virus (HIV-1 NL-432 recombinant molecular clone, IN gene); experiment: HIV replication inhibition assay against integrase 124/125 mutant virus (Test Example 2); format: cell-based
In short: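 MT-4 cells (2.5×10^4 per well) infected with 60 pfu of 293T-derived HIV-1 NL-432 clone carrying integrase 124/125 point mutations, in presence of compound, cultured 4 days at 37 °C. Viability by MTT formazan at 560/690 nm; EC50 = concentration inhibiting 50% of virus-induced cytotoxicity.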

[3] = biological target: CYP3A4 (Homo sapiens (Human), UniProt P08684); experiment: CYP3A4 (MDZ) MBI test (Test Example 6); settings: pooled human liver microsomes, midazolam 1-hydroxylation, preincubation 0 or 30 min
[4] = biological target: CYP2C9 (Homo sapiens (Human), UniProt P11712); experiment: CYP inhibition assay, tolbutamide methyl-hydroxylation (Test Example 4); format: in vitro ADME; settings: pooled human hepatic microsome, 100 μmol/L tolbutamide, 15 minutes, 37° C.
Method: Using commercially available pooled human hepatic microsome, and employing, as markers, 7-ethoxyresorufin O-deethylation (CYP1A2), tolbutamide methyl-hydroxylation (CYP2C9), mephenytoin 4′-hydroxylation (CYP2C19), dextromethorphan O-demethylation (CYP2D6), and terfenadine hydroxylation (CYP3A4) as typical substrate metabolism reactions of human main five CYP enzyme forms (CYP1A2, 2C9, 2C19, 2D6, 3A4) an inhibitory degree of each metabolite production amount by a test compound was assessed.
The reaction conditions were as follows: substrate, 0.5 μmol/L ethoxyresorufin (CYP1A2), 100 μmol/L tolbutamide (CYP2C9), 50 μmol/L S-mephenytoin (CYP2C19), 5 μmol/L dextromethorphan (CYP2D6), 1 μmol/L terfenedine (CYP3A4); reaction time, 15 minutes; reaction temperature, 37° C.; enzyme, pooled human hepatic microsome 0.2 mg protein/mL; test drug concentration, 1, 5, 10, 20 μmol/L (four points).
Each five kinds of substrates, human hepatic microsome, and a test drug in 50 mmol/L Hepes buffer as a reaction solution was added to a 96-well plate as the composition ad described above, NADPH, as a coenzyme was added to initiate metabolism reactions as markers and, after the incubation at 37° C. for 15 minutes, a methanol/acetonitrile=1/1 (V/V) solution was added to stop the reaction. After the centrifugation at 3000 rpm for 15 minutes, resorufin (CYP1A2 metabolite) in the supernatant was quantified by a fluorescent multilabel counter and tolbutamide hydroxide (CYP2C9 metabolite), mephenytoin 4′ hydroxide (CYP2C19 metabolite), dextrorphan (CYP2D6 metabolite), and terfenadine alcohol (CYP3A4 metabolite) were quantified by LC/MS/MS.

[5] = test system: HIV (HTLV-IIIB strain); experiment: HIV replication inhibition assay (Test Example 1; MT-4 cells, MTT); format: cell-based; settings: MT-4 cells, MTT; for EC90: read-out: EC90; for EC50: read-out: EC50
In short: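 MT-4 cells (2.5×10^4/well) were infected with HIV HTLV-IIIB (60 pfu) in the presence of compound and cultured 4 days at 37 °C. Cell viability was read by MTT reduction (OD 560/690 nm). EC50 and EC90 are the concentrations inhibiting virus-induced cytotoxicity by 50% and 90%.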

[6] = test system: HIV; format: cell-based; settings: EC50 in the presence of human serum (25%) versus without human serum, MT-4 cells
In short: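 Compound is preincubated 1 h at room temperature with human serum, or with medium alone as the serum-free control. MT-4 cells infected with HIV (1 h, 37° C) are added and cultured 4 days. EC50 is determined with and without serum; their ratio gives the potency shift.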

[7] = Human immunodeficiency virus 1, MT4, read-out: EC50 against T125A mutant virus, T125A mutant virus (HIV-1 NL-432 IN gene), MT-4 cells, MTT
[8] = Human immunodeficiency virus 1, MT4, 96 h, HIV (HTLV-IIIB strain), four days
[9] = HIV (HTLV-IIIB strain), four days

Chain of CYP3A4 (P08684 whole entry): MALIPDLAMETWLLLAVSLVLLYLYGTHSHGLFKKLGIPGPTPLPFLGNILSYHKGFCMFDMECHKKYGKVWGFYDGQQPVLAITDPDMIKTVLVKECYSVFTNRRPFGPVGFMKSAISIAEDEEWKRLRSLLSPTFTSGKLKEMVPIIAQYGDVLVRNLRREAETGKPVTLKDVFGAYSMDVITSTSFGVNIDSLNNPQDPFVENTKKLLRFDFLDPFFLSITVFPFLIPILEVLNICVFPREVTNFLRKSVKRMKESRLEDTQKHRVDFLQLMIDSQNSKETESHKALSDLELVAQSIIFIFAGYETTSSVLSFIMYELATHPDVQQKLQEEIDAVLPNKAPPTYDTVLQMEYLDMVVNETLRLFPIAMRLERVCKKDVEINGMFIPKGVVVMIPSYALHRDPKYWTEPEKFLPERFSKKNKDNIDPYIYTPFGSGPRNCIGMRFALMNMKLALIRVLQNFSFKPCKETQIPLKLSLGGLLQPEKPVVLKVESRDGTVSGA
Chain of CYP2C9 (P11712 whole entry): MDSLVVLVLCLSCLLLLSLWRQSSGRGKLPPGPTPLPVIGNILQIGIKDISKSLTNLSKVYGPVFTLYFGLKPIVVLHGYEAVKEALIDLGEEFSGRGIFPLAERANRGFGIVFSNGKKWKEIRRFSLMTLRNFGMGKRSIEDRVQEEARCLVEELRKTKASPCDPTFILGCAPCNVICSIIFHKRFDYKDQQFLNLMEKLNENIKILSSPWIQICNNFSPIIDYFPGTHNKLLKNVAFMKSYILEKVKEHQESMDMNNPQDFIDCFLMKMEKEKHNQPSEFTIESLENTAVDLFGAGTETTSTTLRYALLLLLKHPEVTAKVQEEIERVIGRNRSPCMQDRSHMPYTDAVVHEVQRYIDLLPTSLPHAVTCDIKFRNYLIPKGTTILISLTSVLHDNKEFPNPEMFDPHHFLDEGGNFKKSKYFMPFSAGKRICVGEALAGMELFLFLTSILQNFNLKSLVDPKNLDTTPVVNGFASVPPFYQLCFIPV

With `CCOc1cnc(N2CCn3c(C)cc4c(-c5ccc(Cl)cc5)c([C@H](OC(C)(C)C)C(=O)O)c(C)c2c43)nc1` [Compound I-181] the “Photohemolysis test, potential of phototoxicity (PI and met-Hb)” value (shortened to “Photohemolysis test, potential”) [1] was “(−) (negative criteria (−), PI<10% and changes in absorbance at 630 nm<0.05, respectively)”, the EC50 [2, 7] was 3.5 nM and the “CYP3A4 (MDZ) MBI, shifted IC” value [3] was “(−) (When a shifted IC was 1.0 or less, this was defined as negative)”. The IC50 [4] was > 20000 nM, the EC90 [5, 8] was 2.3 nM and the EC50 ([5]; Human immunodeficiency virus 1, MT4, 96 h, HIV HTLV-IIIB strain, cultured four days) was 1.4 nM. The Potency shift value [6] was 17.

With `COc1cnc(N2CCn3c(C)cc4c(-c5ccc(C)cc5)c([C@H](OC(C)(C)C)C(=O)O)c(C)c2c43)nc1` [Compound I-189] the “Photohemolysis test, potential” value [1] was “(−) (negative criteria (−), PI<10% and changes in absorbance at 630 nm<0.05, respectively)”, the EC50 [2, 7] was 3.1 nM and the “CYP3A4 (MDZ) MBI, shifted IC” value [3] was “(−) (When a shifted IC was 1.0 or less, this was defined as negative)”. The IC50 [4] was > 20000 nM, the EC50 [5, 8] was 1.6 nM and the EC90 [5, 8] was 3.2 nM. It also gave a Potency shift value [6] of 22.

In the case of `Cc1cnc(N2CCn3c(C)cc4c(-c5ccc(Cl)cc5)c([C@H](OC(C)(C)C)C(=O)O)c(C)c2c43)nc1` [Compound I-190], the “Photohemolysis test, potential” value [1] is reported as “(−) (negative criteria (−), PI<10% and changes in absorbance at 630 nm<0.05, respectively)”, the EC50 [2, 7] is reported as 2.1 nM and the “CYP3A4 (MDZ) MBI, shifted IC” value [3] is reported as “(−) (When a shifted IC was 1.0 or less, this was defined as negative)”. For the same compound, the IC50 [4] was > 20000 nM, the EC50 [5, 8] was 0.83 nM and the EC90 [5, 8] was 1.3 nM. The Potency shift value [6] was 21.

`Cc1ccc(-c2c([C@H](OC(C)(C)C)C(=O)O)c(C)c3c4c2cc(C)n4CCN3c2ncc(OCCN(C)C)cn2)cc1` [Compound I-220] was tested, and the “Photohemolysis test, potential” value [1] was “(−) (negative criteria (−), PI<10% and changes in absorbance at 630 nm<0.05, respectively)”, the EC50 ([2]; T125A mutant virus (HIV-1 NL-432 IN gene), MT-4 cells, MTT, read-out: EC50 against T125A mutant virus) was 14 nM and the “CYP3A4 (MDZ) MBI, shifted IC” value [3] was “(−) (When a shifted IC was 1.0 or less, this was defined as negative)”. For the same compound, the IC50 [4] was > 20000 nM, the EC50 [5, 9] was 6 nM and the EC90 [5, 9] was 11 nM. It also gave a Potency shift value [6] of 3.7.

For `Cc1c([C@H](OC(C)(C)C)C(=O)O)c(-c2ccc(Cl)cc2)c2cc(C)n3c2c1N(c1ncc(OCCN(C)C)cn1)CC3` [Compound I-244], the “Photohemolysis test, potential” value [1] was “(−) (negative criteria (−), PI<10% and changes in absorbance at 630 nm<0.05, respectively)”, the EC50 [2, 7] was 12 nM and the “CYP3A4 (MDZ) MBI, shifted IC” value [3] was “(−) (When a shifted IC was 1.0 or less, this was defined as negative)”. The IC50 [4] was > 20000 nM, the EC50 [5, 8] was 4.8 nM and the EC90 [5, 8] was 8 nM. For the same compound, the Potency shift value [6] was 3.4.

With `Cc1c([C@H](OC(C)(C)C)C(=O)O)c(-c2ccc(Cl)cc2)c2cc(C)n3c2c1N(c1ncc(OCCCN(C)C)cn1)CC3` [Compound I-257] the “Photohemolysis test, potential” value [1] was “(−) (negative criteria (−), PI<10% and changes in absorbance at 630 nm<0.05, respectively)”, the EC50 [2, 7] was 28 nM and the “CYP3A4 (MDZ) MBI, shifted IC” value [3] was “(−) (When a shifted IC was 1.0 or less, this was defined as negative)”. For the same compound, the IC50 [4] was > 20000 nM, the EC50 [5, 8] was 7.4 nM and the EC90 [5, 8] was 8.1 nM. The Potency shift value [6] was 4.

With `Cc1c([C@H](OC(C)(C)C)C(=O)O)c(-c2ccc(Cl)cc2)c2cc(C)n3c2c1N(c1ncc(OCC2COC2)cn1)CC3` [Compound I-258] the “Photohemolysis test, potential” value [1] was “(−) (negative criteria (−), PI<10% and changes in absorbance at 630 nm<0.05, respectively)”, the EC50 [2, 7] was 4.9 nM and the “CYP3A4 (MDZ) MBI, shifted IC” value [3] was “(−) (When a shifted IC was 1.0 or less, this was defined as negative)”. The IC50 [4] was > 20000 nM, the EC50 [5, 8] was 2.1 nM and the EC90 [5, 8] was 2.9 nM. For the same compound, the Potency shift value [6] was 11.

`[2H]C([2H])([2H])Oc1cnc(N2CCn3c(C)cc4c(-c5ccc(Cl)cc5)c([C@H](OC(C)(C)C)C(=O)O)c(C)c2c43)nc1` [Compound I-260] was tested, and the “Photohemolysis test, potential” value [1] was “(−) (negative criteria (−), PI<10% and changes in absorbance at 630 nm<0.05, respectively)”, the EC50 [2, 7] was 3.6 nM and the “CYP3A4 (MDZ) MBI, shifted IC” value [3] was “(−) (When a shifted IC was 1.0 or less, this was defined as negative)”. The IC50 [4] was > 20000 nM, the EC50 [5, 8] was 1.1 nM and the EC90 [5, 8] was 1.5 nM. For the same compound, the Potency shift value [6] was 15.

With `Cc1ccc(N2CCn3c(C)cc4c(-c5ccc(Cl)cc5)c([C@H](OC(C)(C)C)C(=O)O)c(C)c2c43)nn1` [Compound I-262] the “Photohemolysis test, potential” value [1] was “(−) (negative criteria (−), PI<10% and changes in absorbance at 630 nm<0.05, respectively)”, the EC50 [2, 7] was 5 nM and the “CYP3A4 (MDZ) MBI, shifted IC” value [3] was “(−) (When a shifted IC was 1.0 or less, this was defined as negative)”. For the same compound, the IC50 [4] was > 20000 nM, the EC50 [5, 8] was 3.2 nM and the EC90 [5, 8] was 5.1 nM. The Potency shift value [6] was 13.

In the case of `Cc1ccc(-c2c([C@H](OC(C)(C)C)C(=O)O)c(C)c3c4c2cc(C)n4CCN3c2ncc(OCCCN(C)C)cn2)cc1` [Compound I-267], the “Photohemolysis test, potential” value [1] is reported as “(−) (negative criteria (−), PI<10% and changes in absorbance at 630 nm<0.05, respectively)”, the EC50 [2, 7] is reported as 26 nM and the “CYP3A4 (MDZ) MBI, shifted IC” value [3] is reported as “(−) (When a shifted IC was 1.0 or less, this was defined as negative)”. For the same compound, the IC50 [4] was > 20000 nM, the EC50 [5, 8] was 11 nM and the EC90 [5, 8] was 18 nM. The Potency shift value [6] was 4.

In the case of `Cc1ccc(-c2c([C@H](OC(C)(C)C)C(=O)O)c(C)c3c4c2cc(C)n4CCN3c2ncc(O[C@H]3CCN(C)C3)cn2)cc1` [Compound I-270], the “Photohemolysis test, potential” value [1] is reported as “(−) (negative criteria (−), PI<10% and changes in absorbance at 630 nm<0.05, respectively)”, the EC50 [2, 7] is reported as 13 nM and the “CYP3A4 (MDZ) MBI, shifted IC” value [3] is reported as “(−) (When a shifted IC was 1.0 or less, this was defined as negative)”. For the same compound, the IC50 [4] was > 20000 nM, the EC50 [5, 8] was 4.5 nM and the EC90 [5, 8] was 7.5 nM. It also gave a Potency shift value [6] of 3.8.

For `Cc1ccc(-c2c([C@H](OC(C)(C)C)C(=O)O)c(C)c3c4c2cc(C)n4CCN3c2ncc(OC3CCN(C)CC3)cn2)cc1` [Compound I-278], the “Photohemolysis test, potential” value [1] was “(−) (negative criteria (−), PI<10% and changes in absorbance at 630 nm<0.05, respectively)”, the EC50 [2, 7] was 13 nM and the “CYP3A4 (MDZ) MBI, shifted IC” value [3] was “(−) (When a shifted IC was 1.0 or less, this was defined as negative)”. The IC50 [4] was > 20000 nM, the EC50 [5, 8] was 5.5 nM and the EC90 [5, 8] was 11 nM. For the same compound, the Potency shift value [6] was 3.6.

For `Cc1ccc(-c2c([C@H](OC(C)(C)C)C(=O)O)c(C)c3c4c2cc(C)n4CCN3c2nc3c(s2)CCN(C)C3)cc1` [Compound I-292], the “Photohemolysis test, potential” value [1] was “(−) (negative criteria (−), PI<10% and changes in absorbance at 630 nm<0.05, respectively)”, the EC50 [2, 7] was 6.3 nM and the “CYP3A4 (MDZ) MBI, shifted IC” value [3] was “(−) (When a shifted IC was 1.0 or less, this was defined as negative)”. For the same compound, the IC50 [4] was > 20000 nM, the EC50 [5, 8] was 2.5 nM and the EC90 [5, 8] was 5.1 nM. For the same compound, the Potency shift value [6] was 4.5.

— patent US10494380B2, “Nitrogen-containing tricyclic derivatives having HIV replication inhibitory activity” (priority 2015, dated 2019)
